Experimental data: patent publication US20240270762A1, “PENICILLIN-BINDING PROTEIN INHIBITORS” (priority 2021, published 2024)
≈ marks a conversion by molar mass, not a printed value.

Legend:
[1] = molecular target: T1, PBP2 from Neisseria gonorrhoeae (FA19) (Neisseria gonorrhoeae, UniProt P08149); assay: Bocillin-FL fluorescence polarization competition binding, N. gonorrhoeae PBP2; details: fluorescence polarization competition binding assay using Bocillin-FL, read-out: N. gonorrhoeae PBP2 Potency
T1 construct: made in house
T1 sequence (P08149 whole entry): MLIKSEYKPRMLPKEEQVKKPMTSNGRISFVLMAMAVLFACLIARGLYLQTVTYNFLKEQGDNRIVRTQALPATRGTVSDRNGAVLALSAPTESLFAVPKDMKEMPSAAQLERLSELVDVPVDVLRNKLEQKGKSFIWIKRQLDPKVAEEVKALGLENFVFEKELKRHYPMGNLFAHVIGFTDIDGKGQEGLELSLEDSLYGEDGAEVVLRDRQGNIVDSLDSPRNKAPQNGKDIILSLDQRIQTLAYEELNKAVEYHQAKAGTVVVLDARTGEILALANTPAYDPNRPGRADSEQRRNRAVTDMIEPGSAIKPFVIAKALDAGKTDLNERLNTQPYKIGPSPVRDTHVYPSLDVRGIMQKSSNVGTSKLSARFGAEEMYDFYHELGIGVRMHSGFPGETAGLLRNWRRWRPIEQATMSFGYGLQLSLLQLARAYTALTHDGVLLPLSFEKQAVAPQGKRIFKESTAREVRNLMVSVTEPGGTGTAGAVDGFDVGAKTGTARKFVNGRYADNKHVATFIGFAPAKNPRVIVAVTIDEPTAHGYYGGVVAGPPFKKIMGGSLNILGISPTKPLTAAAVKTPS
Method in brief: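 Fluorescence polarization competition with 0.1 μM Bocillin-FL (fluorescent penicillin V) against 0.25 μM N. gonorrhoeae FA19 PBP2 in 50 mM Hepes pH 8.0, 300 mM NaCl, 10% glycerol. Boronic acid inhibitors were preincubated with PBP, then Bocillin-FL was added and FP read (490/520 nm) up to 60 min. EC50 is the concentration halving PBP-bound Bocillin-FL.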

E. coli ATCC 25922 = assay: microbe, parasite or virus in culture; assay type: cell-based; details: Escherichia coli, ATCC25922, read-out: MIC E. coli 25922
E. coli AG100 = assay: microbe, parasite or virus in culture; assay type: cell-based; details: Escherichia coli, AG100, read-out: MIC E. coli AG100
E. coli 901C = assay: microbe, parasite or virus in culture; assay type: cell-based; details: Escherichia coli, read-out: MIC E. coli 901C
E. coli D22 = assay: microbe, parasite or virus in culture; assay type: cell-based; details: Escherichia coli, D22, read-out: MIC E. coli D22
K. pneumoniae 848844 = assay: microbe, parasite or virus in culture; assay type: cell-based; details: Klebsiella pneumoniae, 848844, read-out: MIC K. pneumoniae 848844
K. pneumoniae UMM = assay: microbe, parasite or virus in culture; assay type: cell-based; details: Klebsiella pneumoniae, read-out: MIC K. pneumoniae UMM
K. pneumoniae SI-117 = assay: microbe, parasite or virus in culture; assay type: cell-based; details: Klebsiella pneumoniae, SI117, read-out: MIC K. pneumoniae SI-117
P. aeruginosa ATCC 27853 = assay: microbe, parasite or virus in culture; assay type: cell-based; details: Pseudomonas aeruginosa, ATCC27853, read-out: MIC P. aeruginosa ATCC 27853
A. baumannii ATCC 19606 = assay: microbe, parasite or virus in culture; assay type: cell-based; details: Acinetobacter baumannii, ATCC19606, read-out: MIC, A. baumannii ATCC 19606
P. aeruginosa ATCC 35151 = assay: microbe, parasite or virus in culture; assay type: cell-based; details: Pseudomonas aeruginosa, ATCC35151, read-out: MIC P. aeruginosa ATCC 35151
[2] = tested on: P. aeruginosa (ΔmexAB-oprM); assay: Broth microdilution MIC in CAMHB; assay type: cell-based; details: Pseudomonas aeruginosa; read-out: MIC P. aeruginosa ΔmexAB-oprM
N. gonorrhoeae FA1090 = assay: Liquid broth MIC in Fastidious broth; details: Neisseria gonorrhoeae, FA1090, read-out: Minimum Inhibitory Concentration (MIC), N. gonorrhoeae FA 1090
N. gonorrhoeae MS11 = assay: Liquid broth MIC in Fastidious broth; details: Neisseria gonorrhoeae, MS11, read-out: Minimum Inhibitory Concentration (MIC), N. gonorrhoeae MS11
N. gonorrhoeae WHO M = assay: Liquid broth MIC in Fastidious broth; details: Neisseria gonorrhoeae, read-out: Minimum Inhibitory Concentration (MIC), N. gonorrhoeae WHO M
N. gonorrhoeae WHO K = assay: Liquid broth MIC in Fastidious broth; details: Neisseria gonorrhoeae, read-out: Minimum Inhibitory Concentration (MIC), N. gonorrhoeae WHO K
N. gonorrhoeae WHO X = assay: Liquid broth MIC in Fastidious broth; details: Neisseria gonorrhoeae, read-out: Minimum Inhibitory Concentration (MIC), N. gonorrhoeae WHO X
N. gonorrhoeae WHO Z = assay: Liquid broth MIC in Fastidious broth; details: Neisseria gonorrhoeae, read-out: Minimum Inhibitory Concentration (MIC), N. gonorrhoeae WHO Z

## CC(=O)NC(C(=O)N[C@H]1Cc2cccc(C(=O)O)c2OB1O)c1ccc(P(=O)(O)O)cc1 (stereo partly drawn) [Example 26, (3R)-3-(2-acetamido-2-(4-phosphonophenyl)acetamido)-2-hydroxy-3,4-dihydro-2H-benzo[e][1,2]oxaborinine-8-carboxylic acid]
[1]
  EC50: 10 to 50 µM
E. coli ATCC 25922
  MIC: > 128 µg/mL
E. coli AG100
  MIC: > 128 µg/mL
E. coli 901C
  MIC: 8 to 16 µg/mL (≈ 17.3 to 34.6 µM)
E. coli D22
  MIC: 32 to 64 µg/mL (≈ 69.2 to 138 µM)
K. pneumoniae 848844
  MIC: > 128 µg/mL
K. pneumoniae UMM
  MIC: > 128 µg/mL
K. pneumoniae SI-117
  MIC: > 128 µg/mL
P. aeruginosa ATCC 27853
  MIC: > 128 µg/mL
A. baumannii ATCC 19606
  MIC: > 128 µg/mL
P. aeruginosa ATCC 35151
  MIC: 8 to 16 µg/mL (≈ 17.3 to 34.6 µM)
[2]
  MIC: > 128 µg/mL
N. gonorrhoeae FA1090
  MIC: 16 to 32 µg/mL (≈ 34.6 to 69.2 µM)
N. gonorrhoeae MS11
  MIC: 16 to 32 µg/mL (≈ 34.6 to 69.2 µM)
N. gonorrhoeae WHO M
  MIC: 4 to 8 µg/mL (≈ 8.66 to 17.3 µM)
N. gonorrhoeae WHO K
  MIC: 16 to 32 µg/mL (≈ 34.6 to 69.2 µM)
N. gonorrhoeae WHO X
  MIC: 16 to 32 µg/mL (≈ 34.6 to 69.2 µM)
N. gonorrhoeae WHO Z
  MIC: 16 to 32 µg/mL (≈ 34.6 to 69.2 µM)

## NC(=O)c1ccc(C(=O)NC(C(=O)N[C@H]2Cc3cccc(C(=O)O)c3OB2O)c2ccc(P(=O)(O)O)cc2)nc1 (stereo partly drawn) [Example 188, (3R)-3-(2-(5-carbamoylpicolinamido)-2-(4-phosphonophenyl)acetamido)-2-hydroxy-3,4-dihydro-2H-benzo[e][1,2]oxaborinine-8-carboxylic acid]
[1]
  EC50: < 10 µM
E. coli ATCC 25922
  MIC: > 128 µg/mL
E. coli AG100
  MIC: > 128 µg/mL
E. coli 901C
  MIC: < 1 µg/mL
E. coli D22
  MIC: 8 to 16 µg/mL (≈ 14.1 to 28.2 µM)
K. pneumoniae 848844
  MIC: > 128 µg/mL
K. pneumoniae UMM
  MIC: > 128 µg/mL
K. pneumoniae SI-117
  MIC: > 128 µg/mL
P. aeruginosa ATCC 27853
  MIC: > 128 µg/mL
A. baumannii ATCC 19606
  MIC: > 128 µg/mL
P. aeruginosa ATCC 35151
  MIC: 8 to 16 µg/mL (≈ 14.1 to 28.2 µM)
[2]
  MIC: 32 to 64 µg/mL (≈ 56.3 to 113 µM)
N. gonorrhoeae FA1090
  MIC: < 1 µg/mL
N. gonorrhoeae MS11
  MIC: < 1 µg/mL
N. gonorrhoeae WHO M
  MIC: < 1 µg/mL
N. gonorrhoeae WHO K
  MIC: 1 to 2 µg/mL (≈ 1.76 to 3.52 µM)
N. gonorrhoeae WHO X
  MIC: 4 to 8 µg/mL (≈ 7.04 to 14.1 µM)
N. gonorrhoeae WHO Z
  MIC: 1 to 2 µg/mL (≈ 1.76 to 3.52 µM)

## Nc1nc(C(=O)N[C@@H](C(=O)N[C@H]2Cc3cccc(C(=O)O)c3OB2O)c2ccc(P(=O)(O)O)cc2)cs1 (racemic) [Example 51, (R)-3-((S)-2-(2-aminothiazole-4-carboxamido)-2-(4-phosphonophenyl)acetamido)-2-hydroxy-3,4-dihydro-2H-benzo[e][1,2]oxaborinine-8-carboxylic acid and (R)-3-((R)-2-(2-aminothiazole-4-carboxamido)-2-(4-phosphonophenyl)acetamido)-2-hydroxy-3,4-dihydro-2H-benzo[e][1,2]oxaborinine-8-carboxylic acid]
[1]
  EC50: < 10 µM
E. coli ATCC 25922
  MIC: > 128 µg/mL
E. coli AG100
  MIC: > 128 µg/mL
E. coli 901C
  MIC: < 1 µg/mL
E. coli D22
  MIC: 2 to 4 µg/mL (≈ 3.66 to 7.32 µM)
K. pneumoniae 848844
  MIC: > 128 µg/mL
K. pneumoniae UMM
  MIC: 32 to 64 µg/mL (≈ 58.6 to 117 µM)
K. pneumoniae SI-117
  MIC: > 128 µg/mL
P. aeruginosa ATCC 27853
  MIC: > 128 µg/mL
A. baumannii ATCC 19606
  MIC: > 128 µg/mL
P. aeruginosa ATCC 35151
  MIC: 2 to 4 µg/mL (≈ 3.66 to 7.32 µM)
[2]
  MIC: 32 to 64 µg/mL (≈ 58.6 to 117 µM)
N. gonorrhoeae FA1090
  MIC: < 1 µg/mL
N. gonorrhoeae MS11
  MIC: < 1 µg/mL
N. gonorrhoeae WHO M
  MIC: < 1 µg/mL
N. gonorrhoeae WHO K
  MIC: 1 to 2 µg/mL (≈ 1.83 to 3.66 µM)
N. gonorrhoeae WHO X
  MIC: 4 to 8 µg/mL (≈ 7.32 to 14.6 µM)
N. gonorrhoeae WHO Z
  MIC: 1 to 2 µg/mL (≈ 1.83 to 3.66 µM)

## CCN1CCN(C(=O)N[C@@H](C(=O)N[C@H]2Cc3ccc(F)c(C(=O)O)c3OB2O)c2ccc(P(=O)(O)O)cc2)C(=O)C1=O (single isomer, unassigned) [Example 10]
[1]
  EC50: < 10 µM
E. coli ATCC 25922
  MIC: > 128 µg/mL
E. coli AG100
  MIC: > 128 µg/mL
E. coli 901C
  MIC: < 1 µg/mL
E. coli D22
  MIC: 8 to 16 µg/mL (≈ 13.2 to 26.4 µM)
K. pneumoniae 848844
  MIC: > 128 µg/mL
K. pneumoniae UMM
  MIC: > 128 µg/mL
K. pneumoniae SI-117
  MIC: > 128 µg/mL
P. aeruginosa ATCC 27853
  MIC: 32 to 64 µg/mL (≈ 52.8 to 106 µM)
A. baumannii ATCC 19606
  MIC: 32 to 64 µg/mL (≈ 52.8 to 106 µM)
P. aeruginosa ATCC 35151
  MIC: < 1 µg/mL
[2]
  MIC: 32 to 64 µg/mL (≈ 52.8 to 106 µM)
N. gonorrhoeae FA1090
  MIC: < 1 µg/mL
N. gonorrhoeae MS11
  MIC: < 1 µg/mL
N. gonorrhoeae WHO M
  MIC: < 1 µg/mL
N. gonorrhoeae WHO K
  MIC: < 1 µg/mL
N. gonorrhoeae WHO X
  MIC: < 1 µg/mL
N. gonorrhoeae WHO Z
  MIC: < 1 µg/mL

## O=C(O)c1cccc2c1OB(O)[C@@H](NC(=O)[C@H](NC(=O)N1CCCCC1=O)c1ccc(P(=O)(O)O)cc1)C2 [Example 37, (R)-2-hydroxy-3-((R)-2-(2-oxopiperidine-1-carboxamido)-2-(4-phosphonophenyl)acetamido)-3,4-dihydro-2H-benzo[e][1,2]oxaborinine-8-carboxylic acid]
[1]
  EC50: < 10 µM
E. coli ATCC 25922
  MIC: > 128 µg/mL
E. coli AG100
  MIC: > 128 µg/mL
E. coli 901C
  MIC: < 1 µg/mL
E. coli D22
  MIC: 8 to 16 µg/mL (≈ 14.7 to 29.3 µM)
K. pneumoniae 848844
  MIC: > 128 µg/mL
K. pneumoniae UMM
  MIC: > 128 µg/mL
K. pneumoniae SI-117
  MIC: > 128 µg/mL
P. aeruginosa ATCC 27853
  MIC: > 128 µg/mL
A. baumannii ATCC 19606
  MIC: > 128 µg/mL
P. aeruginosa ATCC 35151
  MIC: < 1 µg/mL
[2]
  MIC: 8 to 16 µg/mL (≈ 14.7 to 29.3 µM)
N. gonorrhoeae FA1090
  MIC: < 1 µg/mL
N. gonorrhoeae MS11
  MIC: 1 to 2 µg/mL (≈ 1.83 to 3.67 µM)
N. gonorrhoeae WHO M
  MIC: < 1 µg/mL
N. gonorrhoeae WHO K
  MIC: 4 to 8 µg/mL (≈ 7.34 to 14.7 µM)
N. gonorrhoeae WHO X
  MIC: 16 to 32 µg/mL (≈ 29.3 to 58.7 µM)
N. gonorrhoeae WHO Z
  MIC: 1 to 2 µg/mL (≈ 1.83 to 3.67 µM)
